Data set [1] has as its system rats with ISO+5-FU cardiomyopathy. Description: hemodynamic measurements (LV catheterization) after tail vein cell injection in ISO+5-FU cardiomyopathy. The class given is in vivo, rat. The note with it: (84 d) 3 months.
Data set [2] concerns mouse heart. Description: ISO injury in CM-recombined MerCreMer-ZEG and MerCreMer:RYP mice (lineage tracing of new CMs). The class given is in vivo. The note with it: 28 days after ISO. An excerpt:
BrdU labeling and Ki67 expression by itself cannot establish whether the new CMs are generated by the reported division of pre-existing adult CMs or by the activation and ensuing differentiation of a stem-progenitor cell compartment. To specifically address this issue, we traced the cell lineage of the new CMs. We generated double-transgenic mice (MerCreMer-ZEG) (Hsieh et al., 2007; Loffredo et al., 2011) in which, upon tamoxifen administration, β-galactosidase (β-Gal) is replaced by enhanced green fluorescent protein (GFP) exclusively in cardiac cells which have already activated the Myh6 gene (and, therefore, the transgene carrying the cre recombinase gene) which are either post-mitotic CMs or amplifying cells already committed to the CM lineage (i.e., immature myocytes/myocyte precursors).
In tamoxifen-naïve MerCreMer-ZEG mice, 99±0.2% of the CMs express β-Gal and are negative for GFP (the leakage of the Myh6-Cre construct in these animals is ˜0.2%). Tamoxifen correctly switched β-Gal to GFP in CMs (FIG. 15A-C). […] In this setting, if new CMs (BrdU^pos) originated from division of pre-existing CMs they should be more GFP^pos and the ratio between GFP^pos and β-Gal^pos CMs should remain unchanged at ˜80/20. If instead, the new CMs originate from non-CM cells, they should be β-Gal^pos and produce a “dilution” of GFP^pos CMs with a decrease of the GFP^pos/β-Gal^pos CM ratio (FIG. 15A).
In mice, ISO injection caused the same type of myocardial damage and LV dysfunction shown in rats, resulting in c-kit^poseCSC activation, CM regeneration and recovery of cardiac function (FIG. 22). […] These numbers match the CM loss produced by ISO administration (FIG. 22). In contrast, we detected very few newly generated, BrdU^posβ-Gal^pos, CMs (0.15±0.05%) in saline-treated CTRL mice (FIG. 15E). […] This discrepancy might be due to the different injury models used. In contrast to coronary ligation, although ISO kills a large number of CMs, because it leaves a patent coronary circulation the eCSCs are spared and provides a more physiologic test for the endogenous reparative potential of the adult heart (Ellison et al., 2007b). Furthermore, during the two-week administration of tamoxifen for Cre induction it would be expected that some eCSCs have committed to the myogenic lineage and activated the Myh6 gene with recombination of the transgene and generation of […], as reported by Dong et al. (2012).
Finally, we dissociated to single cells CMs from the hearts of double transgenic MerCreMer:RYP mice obtained by crossing MerCreMer with R26R-EYFP (RYP) mice (Qian et al., 2012), in which the CMs were labeled with the enhanced yellow fluorescent protein (EYFP) upon tamoxifen injection. […]

For a further data set, the system named is rats after ISO damage. The note with it: at 28 days.
Data set [3] has as its system rats with ISO+5-FU cardiomyopathy. Put plainly: echocardiography after tail vein cell injection in ISO+5-FU cardiomyopathy. Type of data set: in vivo, rat. The note with it: (84 d) 3 months.
Another data set concerns adult rat myocardium. Particulars: single high dose of ISO; cited from earlier work.
The subject of data set [4] is mouse heart. Put plainly: ISO injury in Lenti-c-kit/Cre recombined RYP mice (c-kit^pos eCSC fate map). The class given is in vivo. The note with it: 28 days after ISO.

We go through one molecule from patent US10526581B2, “Modulation of cardiac stem-progenitor cell differentiation, assays and uses thereof” (priority 2013, dated 2020).

For `CC(C)NCC(O)c1ccc(O)c(O)c1` (stereo not shown) [ISO, isoproterenol], in data set [1], the LVDevP turned out to be 98.9 ± 10.6 mmHg, the LVEDP stood at 2.2 ± 2.3 mmHg, the “dP/dt+” value is on record as 8344 ± 1294 mmHg/s and the “dP/dt−” value came to 7936 ± 1072 mmHg/s. In addition, in the data set on mouse heart [2] (MerCreMer/ZEG mice), the “BrdU^pos CMs” value amounted to 9±2%, the “GFP^pos CMs” value is 73.5±3.5% and the “β-Gal^pos CMs” value amounted to 26.5±2%. The “YFP-marked endogenous CMs” value with mouse heart [2] (MerCreMer:RYP mice, apex (and sub-endocardium)) is on record as roughly 72%. Moreover, the mortality in the data set on rats after ISO damage is 0 of 10. In data set [3], this molecule displayed an EF of 88.6 ± 2.56%, an FS of 51.7 ± 3.7%, an LVIDd of 5.25 ± 0.42 mm and an LVIDs of 2.53 ± 0.31 mm. In addition, in the data set with adult rat myocardium, the “LV CMs killed” value is recorded as 8-10%. Also, the “newly-formed (BrdU^pos) CMs” value in the data set with mouse heart [4] was determined as 9.5±2%. Further, the “YFP^pos cells in the unfixed CM preparation (FACS)” value in the data set on mouse heart [4] (LV apex) was found to be 8.3±1%. Also, in the data set on mouse heart [4] (LV), the “EYFP positive CMs, % of total BrdU^pos CMs” value came out at 43±3%. In addition, the “EYFP positive CMs, % of total BrdU^pos CMs” value in the data set with mouse heart [4] (apex) stood at 74±7%. In addition, the “YFP^pos cells in the unfixed CM preparation (FACS)” value with mouse heart [4] (total LV) turned out to be 2.9±0.5%.
